The target of one experiment is T1, human GluR1 flip (Homo sapiens, UniProt P42261).
T1 construct: expressed in transfected cells; host or cells: CHO-K1
T1 sequence (P42261 19-906 isoform P42261-2 limits assumed): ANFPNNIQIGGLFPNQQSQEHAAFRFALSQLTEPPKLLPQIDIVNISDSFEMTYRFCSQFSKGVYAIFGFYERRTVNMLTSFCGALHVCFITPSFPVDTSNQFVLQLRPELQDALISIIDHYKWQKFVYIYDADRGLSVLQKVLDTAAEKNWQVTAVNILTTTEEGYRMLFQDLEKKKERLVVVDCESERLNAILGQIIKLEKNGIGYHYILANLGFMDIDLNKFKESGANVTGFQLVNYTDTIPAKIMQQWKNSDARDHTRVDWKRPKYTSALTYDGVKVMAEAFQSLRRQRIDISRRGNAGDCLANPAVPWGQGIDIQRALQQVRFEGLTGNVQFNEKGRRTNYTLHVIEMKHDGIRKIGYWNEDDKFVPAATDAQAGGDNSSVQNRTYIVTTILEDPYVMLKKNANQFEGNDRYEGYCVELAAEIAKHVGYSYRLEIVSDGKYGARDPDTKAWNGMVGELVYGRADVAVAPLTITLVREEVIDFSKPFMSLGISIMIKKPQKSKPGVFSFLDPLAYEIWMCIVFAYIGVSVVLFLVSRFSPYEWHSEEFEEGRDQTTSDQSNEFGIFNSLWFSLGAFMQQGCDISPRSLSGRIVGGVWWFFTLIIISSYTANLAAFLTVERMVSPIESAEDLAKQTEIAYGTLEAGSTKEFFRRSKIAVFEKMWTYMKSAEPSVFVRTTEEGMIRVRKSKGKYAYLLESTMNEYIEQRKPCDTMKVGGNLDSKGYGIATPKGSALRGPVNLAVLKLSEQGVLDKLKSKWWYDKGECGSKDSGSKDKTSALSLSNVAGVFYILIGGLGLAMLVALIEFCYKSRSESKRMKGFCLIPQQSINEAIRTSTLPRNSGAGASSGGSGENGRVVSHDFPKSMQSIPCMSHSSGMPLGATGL
T1 sequence (Q9Y698 whole entry partner): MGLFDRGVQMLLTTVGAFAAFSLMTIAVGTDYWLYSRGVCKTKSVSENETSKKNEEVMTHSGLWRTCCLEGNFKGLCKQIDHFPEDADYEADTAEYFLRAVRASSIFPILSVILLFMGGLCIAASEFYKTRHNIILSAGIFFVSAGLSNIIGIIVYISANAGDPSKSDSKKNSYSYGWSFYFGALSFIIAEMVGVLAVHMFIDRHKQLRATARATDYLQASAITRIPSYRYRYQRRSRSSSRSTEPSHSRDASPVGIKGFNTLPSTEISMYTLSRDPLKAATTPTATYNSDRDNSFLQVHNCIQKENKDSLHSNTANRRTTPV
Kind of experiment: AMPA receptor function-enhancing activity using calcium influx as index (CHO-K1/GluR1 flip/stargazin-expressing cells). It is filed as cell-based. As to conditions: CHO-K1, test compound 30 μM with 3 mM glutamic acid, 100% = 3 mM glutamic acid + 300 μM cyclothiazide, 0% = 3 mM glutamic acid alone, read-out: hGluR1 flip/30 μM (%). An excerpt:
Experimental Example 1 Measurement method of AMPA receptor function-enhancing activity of compound using calcium influx as index
(1) Construction of Expression Gene
Human GluR1 flip cDNA was amplified by PCR method using forward primer […] (SEQ ID NO: 1) and reverse primer […] (SEQ ID NO: 2) artificially synthesized using human brain-derived cDNA (BD Bioscience) as a template. The amplified product was digested with restriction enzymes EcoRI, NotI (TAKARA SHUZO CO. LTD.) and incorporated into the same site of pcDNA3.1(+) (Invitrogen) to construct pcDNA3.1(+)/human GluR1 flip gene. Human stargazin cDNA was amplified by PCR method using forward primer […] (SEQ ID NO: 3) and reverse primer […] (SEQ ID NO: 4) artificially synthesized using human hippocampus cDNA as a template. The amplified product was digested with restriction enzymes XhoI, BamHI (TAKARA SHUZO CO. LTD.) and incorporated into the same site of pcDNA3.1(−) (Invitrogen) to construct pcDNA3.1 Zeo(−)/human stargazing gene.
(2) Construction of GluR1 Flip/Stargazin Expressing Cell
CHO-K1 cells passaged in a culture medium (Ham's F12 medium (Invitrogen) added with 10% inactivated fetal bovine serum (Morgate) and penicillin, streptomycin (Invitrogen)) were detached using 0.05% trypsin and 0.53 mM EDTA (Invitrogen) diluted with D-PBS(−). The detached cells were suspended in a culture medium, and recovered by centrifugation at 1,000 rpm. The recovered cells were re-suspended in D-PBS(−) and added into 0.4 cm electroporation cuvette (BioRad). pcDNA3.1(+)/human GluR1 flip gene (5 μg) and pcDNA3.1 Zeo(−)/human stargazin gene (15 μg) were added, and introduced into CHO-K1 cells under the conditions of 950 μFd, […] and using Gene Pulser II (BioRad). The introduced cells were cultured overnight in a culture medium. The next day, using a selection medium (culture medium added with zeocin (Invitrogen) at 250 μg/mL), the cells were plated in a 96 well plate at 250 cells/well. The clones showing drug resistance were selected, and GluR1 flip/stargazin expression clones were selected by an assay method shown below using calcium influx as an index.
(3) Measurement Method of AMPA Receptor Function-Enhancing Activity of Compound, Using Calcium Influx as an Index
CHO-K1/GluR1 flip/stargazin-expressing cells were plated on a 384 well black bottom transparent plate, and cultured for 2 days in a CO2 incubator (SANYO ELECTRIC Co. Ltd.) at 37° C. The medium of the cell plate was removed. A calcium indicator (Calcium5 Assay Kit, Molecular Devices) was diluted with an assay buffer (HBSS (Thermo Fisher Scientific), 0.1% BSA (Merck Millipoer) and 10 mM HEPES (Thermo Fisher Scientific)), and 1.25 mM probenecid (Dojindo Laboratories) was added thereto. The mixture prepared above was added at 30 μL/well (100 μL/well in case of 96 wells) to the well, and the well was left standing in 37° C., CO2 incubator for 1 hr. The cell plate was set in CellLux (PerkinElmer), a mixture (15 μL) (50 μL/well in case of 96 wells) of […] glutamic acid (final concentration 3 mM) diluted with an assay buffer and a test compound (test compound concentration 30 μM) was added thereto, and variation in the amount of fluorescence was measured for 3 min. The variation of fluorescence level of a well added with final concentration 3 mM of glutamic acid and 300 μM cyclothiazide (TOCRIS) was defined as 100%, the variation of fluorescence level of a well added with final concentration 3 mM of glutamic acid alone was defined as 0%, and the activity of the compound was calculated by the following formula. activity (%)=(X−C)/(T−C)×100 • T: variation of fluorescence level of well added with final concentration 3 mM of glutamic acid and 300 μM cyclothiazide • C: variation of fluorescence level of well added with final concentration 3 mM of glutamic acid alone • X: variation of fluorescence level of well added with test compound
For the compound `CCn1c(C(F)(F)F)nc2c(-c3ccc(C(=O)N4CCOCC4)cc3)cccc21` [Example 2, (4-(1-ethyl-2-(trifluoromethyl)-1H-benzimidazol-4-yl)phenyl)(morpholin-4-yl)methanone], the activation at 30 µM came to 79.3%.

Take `CCn1c(C(F)(F)F)nc2c(-c3ccc(C(=O)N4CCOCC4)cc3)nccc21` [Example 4, (4-(1-ethyl-2-(trifluoromethyl)-1H-imidazo[4,5-c]pyridin-4-yl)phenyl)(morpholin-4-yl)methanone]: the activation at 30 µM was 68.4%.

Take `O=C(c1ccc(-c2cccc3c2nc(C(F)(F)F)n3CC(F)F)cc1)N1CCOCC1` [Example 7, (4-(1-(2,2-difluoroethyl)-2-(trifluoromethyl)-1H-benzimidazol-4-yl)phenyl)(morpholin-4-yl)methanone]: the activation at 30 µM turned out to be 83.3%.

Consider `CCn1c(C(F)(F)F)nc2c(-c3ccc(C(=O)N4CCOCC4)c(F)c3)nccc21` [Example 8, (4-(1-ethyl-2-(trifluoromethyl)-1H-imidazo[4,5-c]pyridin-4-yl)-2-fluorophenyl)(morpholin-4-yl)methanone], for which the activation at 30 µM amounted to 109%.

For `CCn1c(C(F)(F)F)nc2c(-c3ccc(C(=O)N4CCO[C@@H](C)C4)c(F)c3)nccc21` [Example 9, (4-(1-ethyl-2-(trifluoromethyl)-1H-imidazo[4,5-c]pyridin-4-yl)-2-fluorophenyl)((2S)-2-methylmorpholin-4-yl)methanone], the activation at 30 µM was 110%.

As for `C[C@H]1CN(C(=O)c2ccc(-c3cccc4c3nc(C(F)(F)F)n4C)cc2F)CCO1` [Example 11, (2-fluoro-4-(1-methyl-2-(trifluoromethyl)-1H-benzimidazol-4-yl)phenyl)((2S)-2-methylmorpholin-4-yl)methanone], the activation at 30 µM was 80.3%.

In the case of `Cn1c(C(F)(F)F)nc2c(-c3ccc(C(=O)N4CCOCC4)c(F)c3)cccc21` [Example 12, (2-fluoro-4-(1-methyl-2-(trifluoromethyl)-1H-benzimidazol-4-yl)phenyl)(morpholin-4-yl)methanone], the activation at 30 µM was 84.4%.

With `C[C@H]1CN(C(=O)c2ccc(-c3cccc4c3nc(C(F)(F)F)n4CC(F)F)cc2)CCO1` [Example 13, (4-(1-(2,2-difluoroethyl)-2-(trifluoromethyl)-1H-benzimidazol-4-yl)phenyl)((2S)-2-methylmorpholin-4-yl)methanone], the activation at 30 µM stood at 112%.

With `O=C(c1ccc(-c2cccc3c2nc(C(F)(F)F)n3CC(F)F)cc1)N1CCCOCC1` [Example 14, (4-(1-(2,2-difluoroethyl)-2-(trifluoromethyl)-1H-benzimidazol-4-yl)phenyl)(1,4-oxazepan-4-yl)methanone], the activation at 30 µM is 92.6%.

As for `O=C(c1ccc(-c2nccc3c2nc(C(F)(F)F)n3CC(F)F)cc1F)N1CCCOCC1` [Example 15, (4-(1-(2,2-difluoroethyl)-2-(trifluoromethyl)-1H-imidazo[4,5-c]pyridin-4-yl)-2-fluorophenyl)(1,4-oxazepan-4-yl)methanone], the activation at 30 µM stood at 72%.

On to `O=C(c1ccc(-c2cccc3c2nc(C(F)(F)F)n3CC(F)F)cc1)N1CCOC(C(F)F)C1` (stereo not shown) [Example 16, (4-(1-(2,2-difluoroethyl)-2-(trifluoromethyl)-1H-benzimidazol-4-yl)phenyl)(2-(difluoromethyl)morpholin-4-yl)methanone], for which the activation at 30 µM came out at 108%.

For `C[C@H]1CN(C(=O)c2ccc(-c3nccc4c3nc(C(F)(F)F)n4CC(F)F)cc2F)CCO1` [Example 17, (4-(1-(2,2-difluoroethyl)-2-(trifluoromethyl)-1H-imidazo[4,5-c]pyridin-4-yl)-2-fluorophenyl)((2S)-2-methylmorpholin-4-yl)methanone], the activation at 30 µM was 95.1%.

Turning to `CN(CCC#N)C(=O)c1ccc(-c2nccc3c2nc(C(F)(F)F)n3CC(F)F)cc1F` [Example 19, N-(2-cyanoethyl)-4-(1-(2,2-difluoroethyl)-2-(trifluoromethyl)-1H-imidazo[4,5-c]pyridin-4-yl)-2-fluoro-N-methylbenzamide], the activation at 30 µM is 81%.

Consider `CN(CCC#N)C(=O)c1ccc(-c2cccc3c2nc(C(F)(F)F)n3CC(F)F)cc1` [Example 21, N-(2-cyanoethyl)-4-(1-(2,2-difluoroethyl)-2-(trifluoromethyl)-1H-benzimidazol-4-yl)-N-methylbenzamide], for which the activation at 30 µM was 93.7%.

In the case of `O=C(c1ccc(-c2nccc3c2nc(C(F)(F)F)n3CC(F)F)cc1F)N1CCC1` [Example 24, azetidin-1-yl(4-(1-(2,2-difluoroethyl)-2-(trifluoromethyl)-1H-imidazo[4,5-c]pyridin-4-yl)-2-fluorophenyl)methanone], the activation at 30 µM was determined as 78.1%.

In the case of `O=C(c1ccc(-c2nccc3c2nc(C(F)(F)F)n3CC(F)F)cc1F)N1CC(F)(F)C1` [Example 26, (3,3-difluoroazetidin-1-yl)(4-(1-(2,2-difluoroethyl)-2-(trifluoromethyl)-1H-imidazo[4,5-c]pyridin-4-yl)-2-fluorophenyl)methanone], the activation at 30 µM stood at 79.3%.

`CN(C(=O)c1ccc(-c2nccc3c2nc(C(F)(F)F)n3CC(F)F)cc1F)C1CCOCC1` [Example 28, 4-(1-(2,2-difluoroethyl)-2-(trifluoromethyl)-1H-imidazo[4,5-c]pyridin-4-yl)-2-fluoro-N-methyl-N-(tetrahydro-2H-pyran-4-yl)benzamide]: the activation at 30 µM stood at 97.8%.

As for `O=C(c1ccc(-c2cccc3c2nc(C(F)(F)F)n3CC(F)F)cc1)N1CCOCC(F)(F)C1` [Example 29, (4-(1-(2,2-difluoroethyl)-2-(trifluoromethyl)-1H-benzimidazol-4-yl)phenyl)(6,6-difluoro-1,4-oxazepan-4-yl)methanone], the activation at 30 µM came to 93%.

Consider `O=C(c1ccc(-c2nccc3c2nc(C(F)(F)F)n3CC(F)F)cc1F)N1CCOCC(F)(F)C1` [Example 34, (4-(1-(2,2-difluoroethyl)-2-(trifluoromethyl)-1H-imidazo[4,5-c]pyridin-4-yl)-2-fluorophenyl)(6,6-difluoro-1,4-oxazepan-4-yl)methanone], for which the activation at 30 µM amounted to 94.2%.

Still in this experiment, the particulars now being: test compound 30 μM with 3 mM glutamic acid, 100% = 3 mM glutamic acid + 300 μM cyclothiazide, 0% = 3 mM glutamic acid alone.
Regarding `O=C(c1ccc(-c2cccc3c2nc(C(F)(F)F)n3CC(F)F)cc1)N1CCOC(C(F)F)C1` (stereo not shown) [Example 22, (4-(1-(2,2-difluoroethyl)-2-(trifluoromethyl)-1H-benzimidazol-4-yl)phenyl)(2-(difluoromethyl)morpholin-4-yl)methanone], the “hGluR1 flip/30 μM (%)” value turned out to be 105.5%.

Consider `O=C(c1ccc(-c2cccc3c2nc(C(F)(F)F)n3CC(F)F)cc1)N1CCOC(C(F)F)C1` (stereo not shown) [Example 23, (4-(1-(2,2-difluoroethyl)-2-(trifluoromethyl)-1H-benzimidazol-4-yl)phenyl)(2-(difluoromethyl)morpholin-4-yl)methanone], for which the “hGluR1 flip/30 μM (%)” value was 103%.

Take `CN(CCC#N)C(=O)c1ccc(-c2nccc3c2nc(C(F)(F)F)n3CC(F)F)cc1F` [Example 30, N-(2-cyanoethyl)-4-(1-(2,2-difluoroethyl)-2-(trifluoromethyl)-1H-imidazo[4,5-c]pyridin-4-yl)-2-fluoro-N-methylbenzamide]: the “hGluR1 flip/30 μM (%)” value is 92.6%.

For the origin of these results see patent publication US11939327B2, “Heterocyclic compounds” (Takeda Pharmaceutical Company Limited, priority 2017, dated 2024).
